How the values were obtained:
[1] = system: ER-positive breast cancer; conditions: preclinical studies, in vivo and in vitro; cited from earlier work
[2] = biological target: T1, KAT6A (Homo sapiens, UniProt Q92794); assay: Inhibition of human KAT enzymes, radioisotope method: KAT6A; type: biochemical; conditions: KAT6A (488-778)
T1 construct: purchased ACTIVE MOTIF 81223
From the text: (§1) Test Example 2: Selective Inhibitory Effects of Test Compounds on Human KAT6 Enzymes (Radioisotope Method)
(§2) • 1. KAT6A (ACTIVE MOTIF, Cat. No. 81223) • 2. KAT5 (BPS, Cat. No. 79422) • 3. KAT7 (ACTIVE MOTIF, Cat. No. 31889) • 4. KAT6B (ACTIVE MOTIF, Cat. No. 81224) • 5. Acetyl coenzyme A, [Acetyl-^3H, 250 μCi (9.25 MBq](PEIRKIN4 ELMER, Cat. No. NET290250UC) • 6. Acetyl coenzyme A (CAYMVAN, Cat. No. 16160) • 7. 384-well Flashplate (Perkin Elmer, Cat. No. SMP410A001PK) • 8. Garcinol (MCE, Cat. No. HY-107569) • 9. Automatic microplate pipetting system (Precision, PRC384U, BioTek) • 10. Ultrasonic nanoliter liquid handling system (Echo 650 Liquid Handler, Echo 650, Labcyte) • 11. Centrifuge (Avanti J-15R, Beckman Coulter) • 12. Liquid scintillation counter (Microplate Counter, Microbeta2, Perkin Elmer)
(§3) • 1. For KAT6A and KAT7, a 1× assay buffer was prepared as follows: 10 mM Tris-HCl pH 8.0, 0.01% Tween-20, and 1 mM DTT; for KAT6B and KAT5, a 1× assay buffer was prepared as follows: 50 mM Tris-HCl pH 8.0, 0.05% Tween-20, and 1 mM DTT. • 2. Compound preparation: For KAT6A, KAT6B, and KAT7, the final concentration of the compounds started at 1 μM, followed by a 5-fold serial dilution across a total of 7 concentration gradients; for KAT5, the final concentration of the compounds started at 10 μM, followed by a 5-fold serial dilution across a total of 7 concentration gradients. • 3. Substrate reaction solution preparation: The mixed substrates of H4 peptide and [3H]acetyl coenzyme A at final concentrations were prepared using the respective 1× assay buffers, as shown in Table 4.
(§4) • 1. The enzyme solution was transferred to 384-well reaction plates at 10 μL/well. For each negative control well, 10 μL of the 1× assay buffer was transferred. The plates were then centrifuged at 1000 RPM for 1 min and incubated at room temperature for 15 min. • 2. The substrate reaction solution was added at 10 μL/well, and the plates were centrifuged at 1000 RPM for 1 min to start the reaction. • 3. The samples for KAT6A, KAT6B, KAT7, KAT8, and KAT5 were then incubated at room temperature for 60 min, 120 min, 45 min, 60 min, and 120 min, respectively. • 4. Stop solution preparation: A stop solution was prepared by diluting 50 µM cold Ac-CoA in 1× buffer. • 5. The stop solution was added at 10 μL/well, and the plates were centrifuged at […] for 1 min to stop the reaction. • 6. The mixtures in the reaction plates were transferred at 25 μL/well to new plates (Streptavidin FlashPlate HTS PLUS, High Capacity, 384-well). • 7. The plates were incubated at room temperature for at least 60 min and then • 8. read using MicroBeta2.
(§5) Raw data were obtained in EXCEL, and the inhibition rates were calculated:
(§6) [formula] [formula] • Max signal: reaction signal from enzyme and substrate; • Sample signal: signal from sample; • Min signal: signal from substrate only (negative control).
(§7) The inhibition rate data were imported into XLFit Excel, and IC50 values were obtained using formula (2):
(§8) [formula] [formula] • Top: value of the top plateau of the fitted regression curve; • Bottom: value of the bottom plateau of the fitted regression curve; • HillSlope: slope of the fitted regression curve.
(§9) The IC50 value was substituted into formula (3) to obtain the enzymatic activity inhibition constant Ki:
(§10) [formula] • [S]: substrate concentration; Km: Michaelis constant.

[3] = system: breast cancer cell line ZR-75-1; assay: Inhibition of proliferation of breast cancer cell line ZR-75-1 (CellTiter-Glo); type: cell-based; conditions: Homo sapiens, 240 h, proliferation of ZR-75-1 cells, 10 days of incubation, read-out: IC50 (KAT6A)
[4] = biological target: T2, KAT6B (Homo sapiens, UniProt Q8WYB5); assay: Inhibition of human KAT enzymes, radioisotope method: KAT6B; type: biochemical; conditions: KAT6B (718-1008)
T2 construct: purchased ACTIVE MOTIF 81224
From the text: as §1, §2, §3, §4, §5, §6, §7, §8, §9, §10

[5] = biological target: T3, KAT7 (Homo sapiens, UniProt O95251); assay: Inhibition of human KAT enzymes, radioisotope method: KAT7; type: biochemical; conditions: for Ki: KAT7 (full-length), radioisotope method; for KAT7/ KAT6A / KAT7/ KAT6B: selectivity, ratio of Ki
T3 construct: purchased ACTIVE MOTIF 31889
T3 sequence (O95251 whole entry): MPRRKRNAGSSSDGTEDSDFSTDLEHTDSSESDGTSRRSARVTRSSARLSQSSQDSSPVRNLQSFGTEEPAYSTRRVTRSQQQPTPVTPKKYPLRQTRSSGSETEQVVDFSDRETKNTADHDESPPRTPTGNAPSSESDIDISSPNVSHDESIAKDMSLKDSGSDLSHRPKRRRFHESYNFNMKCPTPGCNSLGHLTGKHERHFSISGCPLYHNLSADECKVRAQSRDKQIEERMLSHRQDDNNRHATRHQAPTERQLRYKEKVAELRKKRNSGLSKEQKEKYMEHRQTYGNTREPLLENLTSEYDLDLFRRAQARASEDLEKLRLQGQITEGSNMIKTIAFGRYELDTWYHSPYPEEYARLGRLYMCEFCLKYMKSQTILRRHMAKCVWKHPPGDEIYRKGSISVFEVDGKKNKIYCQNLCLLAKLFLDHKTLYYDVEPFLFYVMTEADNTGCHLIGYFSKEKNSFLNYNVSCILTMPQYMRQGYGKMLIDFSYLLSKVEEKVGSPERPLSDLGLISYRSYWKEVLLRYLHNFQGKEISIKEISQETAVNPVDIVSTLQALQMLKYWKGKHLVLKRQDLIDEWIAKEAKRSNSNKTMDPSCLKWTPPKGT
From the text: as §1, §2, §3, §4, §5, §6, §7, §8, §9, §10

[6] = biological target: T4, KAT5 (Homo sapiens, UniProt Q92993); assay: Inhibition of human KAT enzymes, radioisotope method: KAT5; type: biochemical; conditions: for Ki: KAT5 (full-length), radioisotope method; for KAT5/ KAT6A / KAT5/ KAT6B: selectivity, ratio of Ki
T4 construct: purchased BPS 79422
T4 sequence (Q92993 whole entry): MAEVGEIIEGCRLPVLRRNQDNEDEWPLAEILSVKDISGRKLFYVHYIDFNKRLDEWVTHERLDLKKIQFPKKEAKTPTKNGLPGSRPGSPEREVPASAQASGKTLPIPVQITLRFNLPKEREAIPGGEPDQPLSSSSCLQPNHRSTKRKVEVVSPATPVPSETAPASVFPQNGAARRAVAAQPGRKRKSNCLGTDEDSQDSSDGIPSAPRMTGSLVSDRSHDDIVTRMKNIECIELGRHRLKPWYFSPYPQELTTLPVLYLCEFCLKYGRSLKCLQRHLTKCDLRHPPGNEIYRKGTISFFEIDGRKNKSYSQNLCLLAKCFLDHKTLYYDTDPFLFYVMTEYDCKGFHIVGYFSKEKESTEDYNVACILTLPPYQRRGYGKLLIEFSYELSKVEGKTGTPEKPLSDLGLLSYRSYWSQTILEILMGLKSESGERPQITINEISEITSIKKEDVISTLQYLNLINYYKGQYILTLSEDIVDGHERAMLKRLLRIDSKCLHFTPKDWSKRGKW
From the text: as §1, §2, §3, §4, §5, §6, §7, §8, §9, §10

T1 sequence (Q92794 whole entry): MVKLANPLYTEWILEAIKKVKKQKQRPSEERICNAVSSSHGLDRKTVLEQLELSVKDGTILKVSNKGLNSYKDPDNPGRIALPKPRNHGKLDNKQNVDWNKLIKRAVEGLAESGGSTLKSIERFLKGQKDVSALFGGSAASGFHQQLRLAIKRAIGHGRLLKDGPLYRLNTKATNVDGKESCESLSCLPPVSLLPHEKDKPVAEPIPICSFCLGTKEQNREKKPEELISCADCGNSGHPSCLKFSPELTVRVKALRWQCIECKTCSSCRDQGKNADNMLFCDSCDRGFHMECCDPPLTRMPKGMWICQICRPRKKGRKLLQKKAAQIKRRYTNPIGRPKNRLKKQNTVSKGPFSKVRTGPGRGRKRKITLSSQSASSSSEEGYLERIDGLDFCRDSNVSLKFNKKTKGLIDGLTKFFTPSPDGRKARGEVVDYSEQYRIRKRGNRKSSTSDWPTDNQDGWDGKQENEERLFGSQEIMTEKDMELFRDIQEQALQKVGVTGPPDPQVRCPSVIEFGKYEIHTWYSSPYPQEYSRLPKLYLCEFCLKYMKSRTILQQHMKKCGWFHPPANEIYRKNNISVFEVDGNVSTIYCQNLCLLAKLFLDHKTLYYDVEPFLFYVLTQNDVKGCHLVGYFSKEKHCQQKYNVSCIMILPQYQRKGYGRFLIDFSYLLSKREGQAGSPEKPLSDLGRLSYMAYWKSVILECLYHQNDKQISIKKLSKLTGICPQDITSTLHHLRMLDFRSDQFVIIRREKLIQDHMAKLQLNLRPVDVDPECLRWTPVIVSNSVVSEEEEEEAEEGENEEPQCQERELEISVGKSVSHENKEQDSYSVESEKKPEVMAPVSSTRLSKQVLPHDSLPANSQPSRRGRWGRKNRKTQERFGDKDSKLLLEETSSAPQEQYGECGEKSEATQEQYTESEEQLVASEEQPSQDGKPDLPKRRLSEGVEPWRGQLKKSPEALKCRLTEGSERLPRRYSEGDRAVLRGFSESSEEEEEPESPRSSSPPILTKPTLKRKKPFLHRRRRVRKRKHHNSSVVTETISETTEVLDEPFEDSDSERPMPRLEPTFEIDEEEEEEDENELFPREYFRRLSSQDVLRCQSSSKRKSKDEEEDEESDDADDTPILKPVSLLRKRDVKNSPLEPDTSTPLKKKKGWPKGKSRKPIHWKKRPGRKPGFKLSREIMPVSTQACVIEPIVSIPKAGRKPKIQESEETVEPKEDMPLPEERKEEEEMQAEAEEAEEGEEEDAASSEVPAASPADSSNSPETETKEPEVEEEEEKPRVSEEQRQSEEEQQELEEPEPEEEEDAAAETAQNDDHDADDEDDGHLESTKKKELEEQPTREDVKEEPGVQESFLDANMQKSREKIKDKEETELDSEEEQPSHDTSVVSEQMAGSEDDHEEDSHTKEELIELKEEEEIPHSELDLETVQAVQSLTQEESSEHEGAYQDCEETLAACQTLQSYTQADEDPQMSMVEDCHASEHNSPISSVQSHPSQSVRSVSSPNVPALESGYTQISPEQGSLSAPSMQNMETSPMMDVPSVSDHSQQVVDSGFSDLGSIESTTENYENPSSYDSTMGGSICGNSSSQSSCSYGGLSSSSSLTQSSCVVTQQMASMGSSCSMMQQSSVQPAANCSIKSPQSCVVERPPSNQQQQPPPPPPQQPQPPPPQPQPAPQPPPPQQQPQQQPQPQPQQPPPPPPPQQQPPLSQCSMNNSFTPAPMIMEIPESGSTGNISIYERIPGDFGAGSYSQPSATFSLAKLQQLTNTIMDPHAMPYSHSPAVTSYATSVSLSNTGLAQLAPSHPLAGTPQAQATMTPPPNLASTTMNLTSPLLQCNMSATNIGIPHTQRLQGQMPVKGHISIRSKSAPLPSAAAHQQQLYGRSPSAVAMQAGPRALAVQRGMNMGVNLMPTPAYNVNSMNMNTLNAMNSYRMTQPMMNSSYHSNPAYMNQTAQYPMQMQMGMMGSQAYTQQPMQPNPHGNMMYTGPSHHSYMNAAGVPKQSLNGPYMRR

| Ki [2] [nM] | IC50 [3] [nM] | Ki [4] [nM] | Ki [5] [nM] | KAT7/ KAT6A [5] | KAT7/ KAT6B [5] | Ki [6] [nM] | KAT5/ KAT6A [6] | KAT5/ KAT6B [6] | Compound | anti-tumor activity against ER-positive breast cancer [1] |
| --- | --- | --- | --- | --- | --- | --- | --- | --- | --- | --- |
| – | – | – | – | – | – | – | – | – | COc1cccc(OC)c1S(=O)(=O)Nc1noc2cc(Cn3cccn3)cc(OC)c12 [CTx-648] | excellent in vivo and in vitro anti-tumor activity |
| 0.29 | 0.5 to 2 | 1.6 | 64.5 | 223 | 40 | 1150 | 3967 | 719 | COc1ccc2c(c1S(=O)(=O)Nc1noc3cc(Cn4cccn4)c(F)c(OC)c13)OCCN2C(C)=O [Compound 110, N-(6-((1H-Pyrazol-1-yl)methyl)-5-fluoro-4-methoxybenzo[d]isoxazol-3-yl)-4-acetyl-7-methoxy-3,4-dihydro-2H-benzo[b][1,4]oxazine-8-sulfonamide] | – |
| 0.28 | 2 to 10 | 0.9 | 96 | 343 | 107 | 577 | 2061 | 641 | COc1ccc2c(c1S(=O)(=O)Nc1noc3cc(Cn4cccn4)c(F)c(OC)c13)OCCN2S(C)(=O)=O [Compound 121, N-(6-((1H-Pyrazol-1-yl)methyl)-5-fluoro-4-methoxybenzo[d]isoxazol-3-yl)-7-methoxy-4-(methylsulfonyl)-3,4-dihydro-2H-benzo[b][1,4]oxazine-8-sulfonamide] | – |
